# Results taken from patent EP1181935A2, “Agent for treating mental disorders associated with cerebrovascular disorders” (SUMITOMO PHARMACEUTICALS COMPANY, LIMITED, priority 1995, dated 1996).
# Where a name gives a salt, the structure may show the parent alone.
# Test system: patients with cerebral infarction or hemorrhage accompanied by various mental disorders
# Test: Clinical trial of SM-9018 for mental disorders associated with cerebrovascular disorders
# Type: in vivo
# Settings: 8 weeks
# Method: Examination 1 Clinical trial of SM-9018 for mental disorders associated with cerebrovascular disorders.
# SM-9018 was administered to patients with cerebral infarction or hemorrhage accompanied by various mental disorders described above to examine whether the mental disorders will be improved or not.
# One mg/dosage of SM-9018 was orally administered once (Step I), twice (Step II) or 3 times a day (Step III) for up to 2 weeks after the administration was started and, when the treatment was effective, administration thereof was continued.
# [2] Administration periods: 8 weeks
# Improvement of the mental disorders was evaluated by categorizing into 4 grades: i.e. 1) "excellent", 2) "moderate", 3) "slight", or 4) "unchanged" or other. Among the results obtained, "the number of patients categorized to 1) + 2) divided by the number of patients tested" for each symptom is summarized in the following Tables 1 to 3.
# [1] = Step I: 1 mg orally once a day (increased to 1 mg x 2 times/day if no effect)
# [2] = Step I: 1 mg orally once a day (increased to 1 mg x 2 times/day if no effect), 35 patients examined
# [3] = Step II: 1 mg orally twice a day (increased to 2 mg x 2 times/day if no effect)
# [4] = Step II: 1 mg orally twice a day (increased to 2 mg x 2 times/day if no effect), 28 patients examined
# [5] = Step III: 1 mg orally 3 times a day (increased to 2 mg x 3 times/day if no effect)
# [6] = Step III: 1 mg orally 3 times a day (increased to 2 mg x 3 times/day if no effect), 20 patients examined
structure (smiles),measurement,setting,value
"O=C1[C@H]2CCCC[C@H]2C(=O)N1CCCCN1CCN(c2nsc3ccccc23)CC1 [SM-9018, N-[4-[4-(1,2-benzisothiazol-3-yl)-1-piperazinyl]butyl]-1,2-cis-cyclohexandicarboxyimide hydrochloride]",Aggressive behavior: number of patients categorized to 1) + 2) divided by the number of patients tested,[1],2/7
same,Anxiety: number of patients categorized to 1) + 2) divided by the number of patients tested,[1],3/22
same,Bad humor: number of patients categorized to 1) + 2) divided by the number of patients tested,[1],4/18
same,Delirium: number of patients categorized to 1) + 2) divided by the number of patients tested,[1],1/4
same,Depressive mood: number of patients categorized to 1) + 2) divided by the number of patients tested,[1],4/25
same,Emotional incontinence: number of patients categorized to 1) + 2) divided by the number of patients tested,[1],2/13
same,Emotional tension: number of patients categorized to 1) + 2) divided by the number of patients tested,[1],2/18
same,Fugue: number of patients categorized to 1) + 2) divided by the number of patients tested,[1],1/6
same,Irritability: number of patients categorized to 1) + 2) divided by the number of patients tested,[1],4/25
same,Mental excitement: number of patients categorized to 1) + 2) divided by the number of patients tested,[1],2/14
same,Reduced expression of desires: number of patients categorized to 1) + 2) divided by the number of patients tested,[1],3/29
same,Reduced initiative in activities: number of patients categorized to 1) + 2) divided by the number of patients tested,[1],3/30
same,"Reduced interest in housework, amusement, pastime and the like: number of patients categorized to 1) + 2) divided by the number of patients tested",[1],4/31
same,Reduced positiveness to an influence: number of patients categorized to 1) + 2) divided by the number of patients tested,[1],5/30
same,Total emotional disorders: number of patients categorized to 1) + 2) divided by the number of patients tested,[1],8/33
same,Total loss of spontaneity: number of patients categorized to 1) + 2) divided by the number of patients tested,[1],4/32
same,Total problem behavior: number of patients categorized to 1) + 2) divided by the number of patients tested,[1],2/18
same,"patients with some improvement of mental disorders, including those judged as ""slight"" (global evaluation)",[1],about 77%
same,Final global improvement rating: Excellent (number of patients),[2],2
same,Final global improvement rating: Moderate (number of patients),[2],5
same,Final global improvement rating: Slight (number of patients),[2],20
same,Aggressive behavior: number of patients categorized to 1) + 2) divided by the number of patients tested,[3],3/4
same,Anxiety: number of patients categorized to 1) + 2) divided by the number of patients tested,[3],4/23
same,Bad humor: number of patients categorized to 1) + 2) divided by the number of patients tested,[3],9/21
same,Delirium: number of patients categorized to 1) + 2) divided by the number of patients tested,[3],2/5
same,Depressive mood: number of patients categorized to 1) + 2) divided by the number of patients tested,[3],8/23
same,Emotional incontinence: number of patients categorized to 1) + 2) divided by the number of patients tested,[3],3/13
same,Emotional tension: number of patients categorized to 1) + 2) divided by the number of patients tested,[3],3/18
same,Fugue: number of patients categorized to 1) + 2) divided by the number of patients tested,[3],1/3
same,Irritability: number of patients categorized to 1) + 2) divided by the number of patients tested,[3],5/19
same,Mental excitement: number of patients categorized to 1) + 2) divided by the number of patients tested,[3],4/10
same,Reduced expression of desires: number of patients categorized to 1) + 2) divided by the number of patients tested,[3],5/23
same,Reduced initiative in activities: number of patients categorized to 1) + 2) divided by the number of patients tested,[3],5/26
same,"Reduced interest in housework, amusement, pastime and the like: number of patients categorized to 1) + 2) divided by the number of patients tested",[3],6/27
same,Reduced positiveness to an influence: number of patients categorized to 1) + 2) divided by the number of patients tested,[3],6/23
same,Total emotional disorders: number of patients categorized to 1) + 2) divided by the number of patients tested,[3],11/28
same,Total loss of spontaneity: number of patients categorized to 1) + 2) divided by the number of patients tested,[3],8/27
same,Total problem behavior: number of patients categorized to 1) + 2) divided by the number of patients tested,[3],5/10
same,"patients with some improvement of mental disorders, including those judged as ""slight"" (global evaluation)",[3],about 75%
same,Final global improvement rating: Excellent (number of patients),[4],3
same,Final global improvement rating: Moderate (number of patients),[4],10
same,Final global improvement rating: Slight (number of patients),[4],8
same,Aggressive behavior: number of patients categorized to 1) + 2) divided by the number of patients tested,[5],2/5
same,Anxiety: number of patients categorized to 1) + 2) divided by the number of patients tested,[5],6/19
same,Bad humor: number of patients categorized to 1) + 2) divided by the number of patients tested,[5],6/16
same,Delirium: number of patients categorized to 1) + 2) divided by the number of patients tested,[5],1/4
same,Depressive mood: number of patients categorized to 1) + 2) divided by the number of patients tested,[5],6/18
same,Emotional incontinence: number of patients categorized to 1) + 2) divided by the number of patients tested,[5],2/10
same,Emotional tension: number of patients categorized to 1) + 2) divided by the number of patients tested,[5],5/15
same,Fugue: number of patients categorized to 1) + 2) divided by the number of patients tested,[5],0/3
same,Irritability: number of patients categorized to 1) + 2) divided by the number of patients tested,[5],5/16
same,Mental excitement: number of patients categorized to 1) + 2) divided by the number of patients tested,[5],3/8
same,Reduced expression of desires: number of patients categorized to 1) + 2) divided by the number of patients tested,[5],3/16
same,Reduced initiative in activities: number of patients categorized to 1) + 2) divided by the number of patients tested,[5],6/17
same,"Reduced interest in housework, amusement, pastime and the like: number of patients categorized to 1) + 2) divided by the number of patients tested",[5],8/16
same,Reduced positiveness to an influence: number of patients categorized to 1) + 2) divided by the number of patients tested,[5],3/17
same,Total emotional disorders: number of patients categorized to 1) + 2) divided by the number of patients tested,[5],10/20
same,Total loss of spontaneity: number of patients categorized to 1) + 2) divided by the number of patients tested,[5],9/18
same,Total problem behavior: number of patients categorized to 1) + 2) divided by the number of patients tested,[5],3/10
same,"patients with some improvement of mental disorders, including those judged as ""slight"" (global evaluation)",[5],about 80%
same,Final global improvement rating: Excellent (number of patients),[6],6
same,Final global improvement rating: Moderate (number of patients),[6],7
same,Final global improvement rating: Slight (number of patients),[6],3
